# In PubChem BioAssay AID1963960 (Molecular Pharmacology Branch, DTP, NCI, 2024):
# Where “and” joins values, the source holds several entries; their conditions need not be identical. Equal entries are not always repeated.
# Test system: MDA-MB-468 spheroids with HUVEC/MSC, viability
# Test: Anticancer human tumor MDA-MB-468 cell line growth inhibition [PI3K];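 further: spheroids exposed to agents for seven days before readout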;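 on viability, T/C: 100% = DMSO vehicle control viability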
# Details: for viability, T/C: stronger effect = lower value
# Method in brief: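 Targeted small molecules plus PI3K inhibitors, half-log dose series from Cmax (default top 10 microM), were applied to heterotypic spheroids of cancer cells with HUVEC and MSCs. Viability indicated growth inhibition.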
# [1] = curve of first compound, second compound 0.00316 µM
# [2] = curve of first compound, second compound 0.01 µM
# [3] = curve of first compound, second compound 0.0316 µM
# [4] = curve of first compound, second compound 0.1 µM
# [5] = curve of first compound, second compound 0.316 µM
# [6] = curve of first compound, second compound 1 µM
# [7] = second compound 0.00316 µM, first compound 0.0316 µM
# [8] = second compound 0.00316 µM, first compound 0.1 µM
# [9] = second compound 0.00316 µM, first compound 0.316 µM
# [10] = second compound 0.00316 µM, first compound 1 µM
# [11] = second compound 0.00316 µM, first compound 3.16 µM
# [12] = second compound 0.00316 µM, first compound 10 µM
# [13] = second compound 0.01 µM, first compound 0.0316 µM
# [14] = second compound 0.01 µM, first compound 0.1 µM
# [15] = second compound 0.01 µM, first compound 0.316 µM
# [16] = second compound 0.01 µM, first compound 1 µM
# [17] = second compound 0.01 µM, first compound 3.16 µM
# [18] = second compound 0.01 µM, first compound 10 µM
# [19] = second compound 0.0316 µM, first compound 0.0316 µM
# [20] = second compound 0.0316 µM, first compound 0.1 µM
# [21] = second compound 0.0316 µM, first compound 0.316 µM
# [22] = second compound 0.0316 µM, first compound 1 µM
# [23] = second compound 0.0316 µM, first compound 3.16 µM
# [24] = second compound 0.0316 µM, first compound 10 µM
# [25] = second compound 0.1 µM, first compound 0.0316 µM
# [26] = second compound 0.1 µM, first compound 0.1 µM
# [27] = second compound 0.1 µM, first compound 0.316 µM
# [28] = second compound 0.1 µM, first compound 1 µM
# [29] = second compound 0.1 µM, first compound 3.16 µM
# [30] = second compound 0.1 µM, first compound 10 µM
# [31] = second compound 0.316 µM, first compound 0.0316 µM
# [32] = second compound 0.316 µM, first compound 0.1 µM
# [33] = second compound 0.316 µM, first compound 0.316 µM
# [34] = second compound 0.316 µM, first compound 1 µM
# [35] = second compound 0.316 µM, first compound 3.16 µM
# [36] = second compound 0.316 µM, first compound 10 µM
# [37] = second compound 1 µM, first compound 0.0316 µM
# [38] = second compound 1 µM, first compound 0.1 µM
# [39] = second compound 1 µM, first compound 0.316 µM
# [40] = second compound 1 µM, first compound 1 µM
# [41] = second compound 1 µM, first compound 3.16 µM
# [42] = second compound 1 µM, first compound 10 µM
structure (smiles),measurement,setting,value
Cn1ncc(Cl)c1-c1cc(C(=O)NC(CN)Cc2cccc(F)c2)sc1Cl (stereo not given),"viability, T/C",compound 0.0316 µM,86.1% [middle of 4 runs]
same,"viability, T/C",compound 0.1 µM,69.6% and 66.7% (2×) and 83%
same,"viability, T/C",compound 0.316 µM,53.9% [middle of 4 runs]
same,"viability, T/C",compound 1 µM,34.2% [middle of 4 runs]
same,"viability, T/C",compound 3.16 µM,29.6% [middle of 4 runs]
same,"viability, T/C",compound 10 µM,15.4% [middle of 4 runs]
same,IC50,curve of compound,462 nM [middle of 4 runs]
C=CC(=O)N1CCN(c2nc(=O)n(-c3c(C)ccnc3C(C)C)c3nc(-c4c(O)cccc4F)c(F)cc23)C(C)C1 (stereo not given),"viability, T/C",compound 0.0316 µM,94.1% [middle of 4 runs]
same,"viability, T/C",compound 0.1 µM,96.2% [middle of 4 runs]
same,"viability, T/C",compound 1 µM,107% (2×) and 89.3% and 105%
same,"viability, T/C",compound 3.16 µM,101% [middle of 4 runs]
same,"viability, T/C",compound 10 µM,78.6% [middle of 4 runs]
same,IC50,curve of compound,> 10 µM
Cn1nccc1Nc1nccc(-c2ccn(C(CO)c3ccc(Cl)c(F)c3)c(=O)c2)n1 (stereo not given) + CC(Nc1ccc2c(c1)OCCn1cc(N3C(=O)OCC3C(F)F)nc1-2)C(N)=O,IC50,[1],> 10 µM
same,IC50,[2],> 10 µM
same,IC50,[3],> 10 µM
same,IC50,[4],> 10 µM
same,IC50,[5],> 10 µM
same,IC50,[6],> 10 µM
same,"viability, T/C",[7],85.3%
same,"viability, T/C",[8],96.8%
same,"viability, T/C",[9],87.2%
same,"viability, T/C",[10],90.4%
same,"viability, T/C",[11],96.1%
same,"viability, T/C",[12],87.9%
same,"viability, T/C",[13],97%
same,"viability, T/C",[14],89.1%
same,"viability, T/C",[15],87.8%
same,"viability, T/C",[16],94.9%
same,"viability, T/C",[17],101%
same,"viability, T/C",[18],82.6%
same,"viability, T/C",[19],95.3%
same,"viability, T/C",[20],86.6%
same,"viability, T/C",[21],88.6%
same,"viability, T/C",[22],80.1%
same,"viability, T/C",[23],108%
same,"viability, T/C",[24],77.8%
same,"viability, T/C",[25],88%
same,"viability, T/C",[26],89.2%
same,"viability, T/C",[27],77.7%
same,"viability, T/C",[28],81%
same,"viability, T/C",[29],87.5%
same,"viability, T/C",[30],73.1%
same,"viability, T/C",[31],90%
same,"viability, T/C",[32],82.5%
same,"viability, T/C",[33],89.6%
same,"viability, T/C",[34],87.6%
same,"viability, T/C",[35],82.7%
same,"viability, T/C",[36],60.7%
same,"viability, T/C",[37],85.5%
same,"viability, T/C",[38],74.3%
same,"viability, T/C",[39],74.7%
same,"viability, T/C",[40],74.8%
same,"viability, T/C",[41],81.2%
same,"viability, T/C",[42],55.2%
C[C@@H](NC(=O)c1ncnc(N)c1Cl)c1ncc(C(=O)Nc2cc(C(F)(F)F)c(Cl)cn2)s1 + CC(Nc1ccc2c(c1)OCCn1cc(N3C(=O)OCC3C(F)F)nc1-2)C(N)=O,IC50,[1],> 10 µM
same,IC50,[2],> 10 µM
same,IC50,[3],> 10 µM
same,IC50,[4],> 10 µM
same,IC50,[5],> 10 µM
same,IC50,[6],> 10 µM
same,"viability, T/C",[7],91.6%
same,"viability, T/C",[8],102%
same,"viability, T/C",[9],93.7%
same,"viability, T/C",[10],102%
same,"viability, T/C",[11],104%
same,"viability, T/C",[12],108%
same,"viability, T/C",[13],104%
same,"viability, T/C",[14],105%
same,"viability, T/C",[15],105%
same,"viability, T/C",[16],107%
same,"viability, T/C",[17],93.3%
same,"viability, T/C",[18],81%
same,"viability, T/C",[19],104%
same,"viability, T/C",[20],92.2%
same,"viability, T/C",[21],102%
same,"viability, T/C",[22],97.3%
same,"viability, T/C",[23],93.3%
same,"viability, T/C",[24],81.4%
same,"viability, T/C",[25],98.7%
same,"viability, T/C",[26],85.2%
same,"viability, T/C",[27],93.2%
same,"viability, T/C",[28],101%
same,"viability, T/C",[29],101%
same,"viability, T/C",[30],86.2%
same,"viability, T/C",[31],83.3%
same,"viability, T/C",[32],83.7%
same,"viability, T/C",[33],94.7%
same,"viability, T/C",[34],99.7%
same,"viability, T/C",[35],108%
same,"viability, T/C",[36],68.2%
same,"viability, T/C",[37],97.3%
same,"viability, T/C",[38],89.5%
same,"viability, T/C",[39],89.6%
same,"viability, T/C",[40],99.5%
same,"viability, T/C",[41],91%
same,"viability, T/C",[42],74.1%
Cn1ncnc1[C@H]1c2n[nH]c(=O)c3cc(F)cc(c23)N[C@@H]1c1ccc(F)cc1,"viability, T/C",compound 0.000316 µM,95.9% [middle of 4 runs]
same,"viability, T/C",compound 0.001 µM,93.9% [middle of 4 runs]
same,"viability, T/C",compound 0.00316 µM,85.1% [middle of 4 runs]
same,"viability, T/C",compound 0.01 µM,82.2% [middle of 4 runs]
same,"viability, T/C",compound 0.0316 µM,87.3% [middle of 4 runs]
same,"viability, T/C",compound 0.1 µM,56.5% [middle of 4 runs]
same,IC50,curve of compound,> 0.1 µM
CC1(C)CCC(CN2CCN(c3ccc(C(=O)NS(=O)(=O)c4ccc(NCC5CCOCC5)c([N+](=O)[O-])c4)c(Oc4cnc5[nH]ccc5c4)c3)CC2)=C(c2ccc(Cl)cc2)C1 + CC(Nc1ncnc2nc[nH]c12)c1cc2cccc(Cl)c2c(=O)n1-c1ccccc1,IC50,[3],4.8 µM
same,IC50,[4],4.53 µM
same,IC50,[5],4.3 µM
same,IC50,[6],3.73 µM
same,IC50,"curve of first compound, second compound 3.16 µM",0.0316 µM
same,IC50,"curve of first compound, second compound 10 µM",< 0.0316 µM
same,"viability, T/C",[19],90.5%
same,"viability, T/C",[20],84.6%
same,"viability, T/C",[21],87%
same,"viability, T/C",[22],87.4%
same,"viability, T/C",[23],69.9%
same,"viability, T/C",[24],15.2%
same,"viability, T/C",[25],83.8%
same,"viability, T/C",[26],82.2%
same,"viability, T/C",[27],79.6%
same,"viability, T/C",[28],76.1%
same,"viability, T/C",[29],65.1%
same,"viability, T/C",[30],18.3%
same,"viability, T/C",[31],76.5%
same,"viability, T/C",[32],68.5%
same,"viability, T/C",[33],78%
same,"viability, T/C",[34],68.8%
same,"viability, T/C",[35],62.6%
same,"viability, T/C",[36],17.2%
same,"viability, T/C",[37],58.9%
same,"viability, T/C",[38],65%
same,"viability, T/C",[39],69.9%
same,"viability, T/C",[40],72.2%
same,"viability, T/C",[41],55.8%
same,"viability, T/C",[42],15.5%
same,"viability, T/C","second compound 3.16 µM, first compound 0.0316 µM",50%
same,"viability, T/C","second compound 3.16 µM, first compound 0.1 µM",46.9%
same,"viability, T/C","second compound 3.16 µM, first compound 0.316 µM",47.2%
same,"viability, T/C","second compound 3.16 µM, first compound 1 µM",49.4%
same,"viability, T/C","second compound 3.16 µM, first compound 3.16 µM",50.5%
same,"viability, T/C","second compound 3.16 µM, first compound 10 µM",13.8%
same,"viability, T/C","second compound 10 µM, first compound 0.0316 µM",38.4%
same,"viability, T/C","second compound 10 µM, first compound 0.1 µM",30.9%
same,"viability, T/C","second compound 10 µM, first compound 0.316 µM",39%
same,"viability, T/C","second compound 10 µM, first compound 1 µM",42.5%
same,"viability, T/C","second compound 10 µM, first compound 3.16 µM",32.3%
same,"viability, T/C","second compound 10 µM, first compound 10 µM",15.4%
C#Cc1c(F)ccc2cc(O)cc(-c3ncc4c(N5CC6CCC(C5)N6)nc(OCC56CCCN5CC(F)C6)nc4c3F)c12 (stereo not given),"viability, T/C",compound 0.0316 µM,81.9% [middle of 4 runs]
same,"viability, T/C",compound 0.1 µM,92.6% [middle of 4 runs]
same,"viability, T/C",compound 0.316 µM,92.2% [middle of 4 runs]
same,"viability, T/C",compound 1 µM,100% [middle of 4 runs]
same,"viability, T/C",compound 10 µM,55.1% [middle of 4 runs]
same,IC50,curve of compound,> 10 µM and 9.96 µM
CC(=O)c1c(C)c2cnc(Nc3ccc(N4CCNCC4)cn3)nc2n(C2CCCC2)c1=O,"viability, T/C",compound 0.000316 µM,106% [middle of 4 runs]
same,"viability, T/C",compound 0.001 µM,93.5% [middle of 4 runs]
same,"viability, T/C",compound 0.00316 µM,110% [middle of 4 runs]
same,"viability, T/C",compound 0.01 µM,91% [middle of 4 runs]
same,"viability, T/C",compound 0.0316 µM,99.3% [middle of 4 runs]
same,"viability, T/C",compound 0.1 µM,97.2% [middle of 4 runs]
same,IC50,curve of compound,> 0.1 µM
CC(Cn1ccc(-c2ccc(C#N)c(Cl)c2)n1)NC(=O)c1cc(C(C)O)[nH]n1 (stereo not given),"viability, T/C",compound 0.0316 µM,98% [middle of 4 runs]
same,"viability, T/C",compound 0.1 µM,87.6% [middle of 4 runs]
same,"viability, T/C",compound 0.316 µM,87.2% and 90.1% and 102% (2×)
same,"viability, T/C",compound 1 µM,96.8% [middle of 4 runs]
same,"viability, T/C",compound 3.16 µM,83.8% [middle of 4 runs]
same,IC50,curve of compound,> 10 µM
